{"source": "paper PMC7069944", "about": "“Amino acid levels determine metabolism and CYP450 function of hepatocytes and hepatoma cell lines” (Nature Communications, 2020)", "key": {"[1]": {"test_system": "HepG2", "experiment": "Repeated-exposure DILI training compounds, resazurin conversion, HepG2", "outline": "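PSC-derived cells differentiated in 384-well format, plus HepG2 seeded at 40,000 cells/well, received drugs after 8 h of attachment; untreated wells served as negative controls. Viability was measured by resazurin conversion and related to therapeutic Cmax values.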"}, "[2]": {"test_system": "HC6X", "experiment": "Repeated-exposure DILI training compounds, resazurin conversion, HC6X", "outline": "(§1)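 Viability by resazurin conversion, correlated with Cmax, was assessed after drug exposure in 384-well cultures of differentiated PSCs and of HepG2 (40,000 cells/well). Dosing began 8 h post-attachment, with untreated wells as negative control.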"}, "[3]": {"test_system": "HC3X", "experiment": "Repeated-exposure DILI training compounds, resazurin conversion, HC3X", "settings": "HC3X AAGLY D40", "outline": "as §1"}, "[4]": {"test_system": "HLC", "experiment": "Repeated-exposure DILI training compounds, resazurin conversion, HLC", "outline": "as §1"}}, "note": "“And” between values parts separate entries of the source, which are not always exact repeats. Identical values can stand only once."}
{"smiles": "CCN(CC)C(=O)/C(C#N)=C/c1cc(O)c(O)c([N+](=O)[O-])c1", "note": "[entacapone]", "values": [{"measurement": "Resazurin conversion, repeated exposure (Supplementary Figure 7D)", "setting": "[1]; HepG2 AAGLY D30, 10 uM", "value": "102.7 and 108.3 and 96.3 and 95.5 and 95.9 and 100.8"}, {"measurement": "Resazurin conversion, repeated exposure (Supplementary Figure 7D)", "setting": "[1]; HepG2 AAGLY D30, 30 uM", "value": "105.3 and 123.1 and 95.9 and 95.5 and 94.4 and 98.6"}, {"measurement": "Resazurin conversion, repeated exposure (Supplementary Figure 7D)", "setting": "[1]; HepG2 AAGLY D30, 50 uM", "value": "152.4 and 137.5 and 121.1 and 116.5 and 124.4 and 119.5"}, {"measurement": "Resazurin conversion, repeated exposure (Supplementary Figure 7D)", "setting": "[1]; HepG2 AAGLY D30, 100 uM", "value": "127.9 and 149.8 and 134.1 and 127 and 120.4 and 132.2"}, {"measurement": "Resazurin conversion, repeated exposure (Supplementary Figure 7D)", "setting": "[1]; HepG2 AAGLY D30, 300 uM", "value": "69.6 and 78.3 and 68.3 and 72.6 and 71.7 and 76.3"}, {"measurement": "Resazurin conversion, repeated exposure (Supplementary Figure 7D)", "setting": "[1]; HepG2 AAGLY D30, 500 uM", "value": "44.9 and 57 and 46.8 and 54.7 and 52.8 and 66"}, {"measurement": "Resazurin conversion, repeated exposure (Supplementary Figure 7D)", "setting": "[1]; HepG2 AAGLY D30, 1000 uM", "value": "37.4 and 37.7 and 35.2 and 41.1 and 43.2 and 46"}, {"measurement": "Resazurin conversion, repeated exposure (Supplementary Figure 7D)", "setting": "[1]; HepG2 AAGLY D30, 2000 uM", "value": "19.3 and 22.6 and 21.6 and 20.1 and 20.8"}, {"measurement": "Resazurin conversion, repeated exposure (Supplementary Figure 7D)", "setting": "[1]; HepG2 AAGLY D30, 4000 uM", "value": "12.5 and 14.6 and 13 and 12.9 and 13.1 and 20.4"}, {"measurement": "Resazurin conversion, repeated exposure (Supplementary Figure 7D)", "setting": "[1]; HepG2 CTL D7, 10 uM", "value": 93.9}, {"measurement": "Resazurin conversion, repeated exposure (Supplementary Figure 7D)", "setting": "[1]; HepG2 CTL D7, 30 uM", "value": "102.5 and 112.8 and 108.6 and 134.8 and 127 and 107.9"}, {"measurement": "Resazurin conversion, repeated exposure (Supplementary Figure 7D)", "setting": "[1]; HepG2 CTL D7, 50 uM", "value": "101.5 and 107.8 and 111.6 and 126.8 and 128.3 and 109"}, {"measurement": "Resazurin conversion, repeated exposure (Supplementary Figure 7D)", "setting": "[1]; HepG2 CTL D7, 100 uM", "value": "95.8 and 101 and 100.7 and 120.3 and 125.1 and 104.1"}, {"measurement": "Resazurin conversion, repeated exposure (Supplementary Figure 7D)", "setting": "[1]; HepG2 CTL D7, 300 uM", "value": "67.5 and 62.9 and 68.7 and 80.5 and 91.5 and 70.1"}, {"measurement": "Resazurin conversion, repeated exposure (Supplementary Figure 7D)", "setting": "[1]; HepG2 CTL D7, 500 uM", "value": "36 and 31.8 and 34.4 and 55.7 and 53 and 36.2"}, {"measurement": "Resazurin conversion, repeated exposure (Supplementary Figure 7D)", "setting": "[1]; HepG2 CTL D7, 1000 uM", "value": "9.5 and 6.9 and 7.9 and 10.8 and 9.3 and 8.4"}, {"measurement": "Resazurin conversion, repeated exposure (Supplementary Figure 7D)", "setting": "[1]; HepG2 CTL D7, 2000 uM", "value": "3.6 and 3.2 and 3.7 and 3.8 and 3.4"}, {"measurement": "Resazurin conversion, repeated exposure (Supplementary Figure 7D)", "setting": "[1]; HepG2 CTL D7, 4000 uM", "value": "2.7 and 2 and 2.5 and 2.9 and 3"}, {"measurement": "Resazurin conversion, repeated exposure (Supplementary Figure 7D)", "setting": "[2]; HC6X AAGLY D40, 10 uM", "value": "116.9 and 68.5 and 106.9 and 88.2 and 63 and 119.9"}, {"measurement": "Resazurin conversion, repeated exposure (Supplementary Figure 7D)", "setting": "[2]; HC6X AAGLY D40, 30 uM", "value": "103.2 and 75.2 and 84.6 and 107.4 and 73.5 and 104.8"}, {"measurement": "Resazurin conversion, repeated exposure (Supplementary Figure 7D)", "setting": "[2]; HC6X AAGLY D40, 50 uM", "value": "71.4 and 61.4 and 89.5 and 66.5 and 69.6 and 76.8"}, {"measurement": "Resazurin conversion, repeated exposure (Supplementary Figure 7D)", "setting": "[2]; HC6X AAGLY D40, 100 uM", "value": "43.6 and 55 and 60.5 and 66.1 and 44.9 and 64.9"}, {"measurement": "Resazurin conversion, repeated exposure (Supplementary Figure 7D)", "setting": "[2]; HC6X AAGLY D40, 300 uM", "value": "37.1 and 36.3 and 44.1 and 42.3 and 33.5 and 37.5"}, {"measurement": "Resazurin conversion, repeated exposure (Supplementary Figure 7D)", "setting": "[2]; HC6X AAGLY D40, 500 uM", "value": "24.4 and 21.6 and 32.3 and 32.9 and 27.4 and 25.1"}, {"measurement": "Resazurin conversion, repeated exposure (Supplementary Figure 7D)", "setting": "[2]; HC6X AAGLY D40, 1000 uM", "value": "25.5 and 25.3 and 37.2 and 22.8 and 23.6 and 21"}, {"measurement": "Resazurin conversion, repeated exposure (Supplementary Figure 7D)", "setting": "[2]; HC6X AAGLY D40, 2000 uM", "value": "12 and 11.8 and 15.1 and 12.5 and 11.4 and 12.9"}, {"measurement": "Resazurin conversion, repeated exposure (Supplementary Figure 7D)", "setting": "[2]; HC6X AAGLY D40 Remove dox, 10 uM", "value": "62.8 and 75.4 and 93.9 and 104.7 and 88.6 and 79.3"}, {"measurement": "Resazurin conversion, repeated exposure (Supplementary Figure 7D)", "setting": "[2]; HC6X AAGLY D40 Remove dox, 30 uM", "value": "86.2 and 86.6 and 84.6 and 85 and 82.3"}, {"measurement": "Resazurin conversion, repeated exposure (Supplementary Figure 7D)", "setting": "[2]; HC6X AAGLY D40 Remove dox, 100 uM", "value": "87.4 and 81.5 and 70.5 and 95.4 and 102 and 63.6"}, {"measurement": "Resazurin conversion, repeated exposure (Supplementary Figure 7D)", "setting": "[2]; HC6X AAGLY D40 Remove dox, 300 uM", "value": "89.2 and 80.7 and 67.2 and 48.2 and 75.7 and 47.5"}, {"measurement": "Resazurin conversion, repeated exposure (Supplementary Figure 7D)", "setting": "[2]; HC6X AAGLY D40 Remove dox, 2000 uM", "value": "43.7 and 44 and 38.6 and 66.6 and 63.4 and 64.5"}, {"measurement": "Resazurin conversion, repeated exposure (Supplementary Figure 7D)", "setting": "[3]; 10 uM", "value": "105.5 and 90.3 and 90.2 and 88.2 and 71.2 and 75.6"}, {"measurement": "Resazurin conversion, repeated exposure (Supplementary Figure 7D)", "setting": "[3]; 30 uM", "value": "115.8 and 62.8 and 93.9 and 99.3 and 81.1 and 63.6"}, {"measurement": "Resazurin conversion, repeated exposure (Supplementary Figure 7D)", "setting": "[3]; 50 uM", "value": "82.1 and 69.4 and 93.5 and 81.3 and 74.4 and 55.8"}, {"measurement": "Resazurin conversion, repeated exposure (Supplementary Figure 7D)", "setting": "[3]; 100 uM", "value": "49 and 46.9 and 84.4 and 61.2 and 50.7 and 51.6"}, {"measurement": "Resazurin conversion, repeated exposure (Supplementary Figure 7D)", "setting": "[3]; 500 uM", "value": "18.2 and 17.1 and 16.8 and 16 and 16.9 and 13.4"}, {"measurement": "Resazurin conversion, repeated exposure (Supplementary Figure 7D)", "setting": "[3]; 1000 uM", "value": "8.7 and 10.7 and 12.7 and 12.4 and 7.5"}, {"measurement": "Resazurin conversion, repeated exposure (Supplementary Figure 7D)", "setting": "[3]; 2000 uM", "value": "4 and 3.7 and 3.3 and 2.8 and 3"}, {"measurement": "Resazurin conversion, repeated exposure (Supplementary Figure 7D)", "setting": "[3]; 4000 uM", "value": "2.3 and 2.9 and 3.3 and 2.8 and 2.6 and 2.4"}, {"measurement": "Resazurin conversion, repeated exposure (Supplementary Figure 7D)", "setting": "[4]; HLC AAGLY D40, 10 uM", "value": "72 and 89.5 and 61.6 and 92.2 and 93.5 and 83.6"}, {"measurement": "Resazurin conversion, repeated exposure (Supplementary Figure 7D)", "setting": "[4]; HLC AAGLY D40, 30 uM", "value": "103.8 and 101.2 and 95.5 and 67.7 and 80.3 and 90.5"}, {"measurement": "Resazurin conversion, repeated exposure (Supplementary Figure 7D)", "setting": "[4]; HLC AAGLY D40, 50 uM", "value": "106.7 and 75.7 and 96.1 and 56 and 97.2 and 93.3"}, {"measurement": "Resazurin conversion, repeated exposure (Supplementary Figure 7D)", "setting": "[4]; HLC AAGLY D40, 100 uM", "value": "90.9 and 65.1 and 97.6 and 81.7 and 65.8 and 91.6"}, {"measurement": "Resazurin conversion, repeated exposure (Supplementary Figure 7D)", "setting": "[4]; HLC AAGLY D40, 300 uM", "value": "81.3 and 79.9 and 79 and 69.8 and 111.3 and 89.9"}, {"measurement": "Resazurin conversion, repeated exposure (Supplementary Figure 7D)", "setting": "[4]; HLC AAGLY D40, 500 uM", "value": "97.3 and 87.8 and 100.8 and 81.9 and 90.2 and 84.4"}, {"measurement": "Resazurin conversion, repeated exposure (Supplementary Figure 7D)", "setting": "[4]; HLC AAGLY D40, 1000 uM", "value": "107 and 95.5 and 86.2 and 93 and 108.2 and 101.5"}, {"measurement": "Resazurin conversion, repeated exposure (Supplementary Figure 7D)", "setting": "[4]; HLC LDM D40, 10 uM", "value": "80.5 and 101.6 and 104.1 and 93.5 and 79.5 and 109"}, {"measurement": "Resazurin conversion, repeated exposure (Supplementary Figure 7D)", "setting": "[4]; HLC LDM D40, 30 uM", "value": "122.3 and 84.7 and 104.1 and 84.4 and 84 and 104"}, {"measurement": "Resazurin conversion, repeated exposure (Supplementary Figure 7D)", "setting": "[4]; HLC LDM D40, 50 uM", "value": "80.6 and 88.8 and 112.5 and 118.1 and 65.6 and 98.1"}, {"measurement": "Resazurin conversion, repeated exposure (Supplementary Figure 7D)", "setting": "[4]; HLC LDM D40, 100 uM", "value": "89.9 and 104.8 and 77.5 and 95.7 and 95.5 and 115.1"}, {"measurement": "Resazurin conversion, repeated exposure (Supplementary Figure 7D)", "setting": "[4]; HLC LDM D40, 300 uM", "value": "108.5 and 82.7 and 104.1 and 95.3 and 63.3 and 100.3"}, {"measurement": "Resazurin conversion, repeated exposure (Supplementary Figure 7D)", "setting": "[4]; HLC LDM D40, 500 uM", "value": "94.1 and 111.1 and 84.2 and 118.9 and 108.7 and 108.4"}, {"measurement": "Resazurin conversion, repeated exposure (Supplementary Figure 7D)", "setting": "[4]; HLC LDM D40, 1000 uM", "value": "72.7 and 101.3 and 78 and 89.4 and 85.4 and 124.1"}]}
